Reference: paper PMC13144739, “Global analysis of cancer cell responses to USP9X inhibition” (The EMBO Journal, 2026)
Several values for one entry are separate records, joined by “and”; a condition that tells them apart may be missing. Identical values can stand only once. Entries after “also recorded” stand apart in the source; their conditions may differ.

Columns and labels:
DLD-1 cells = experiment: Colony formation assay, DLD-1; type: cell-based, human; details: 10 µM, 7–12 days
Procedure: (§1) Cells were seeded at low density (200–4000 cells per well) after initial optimisation in a six-well tissue culture-treated plate (Falcon). Twenty-four hours post seeding, media was replaced, and the inhibitor was added. Cells were left to grow into colonies between 7 and 12 days, depending on the cell line. For analysis, the media was removed, and the cells were fixed with 10% (w/v) formalin for 10 min. Colonies were stained with crystal violet (Sigma-Aldrich, 0.5% [w/v] in 20% [v/v] MeOH) for 10 min and washed thrice with distilled H2O. Plates were imaged using the ChemiDoc imaging system (Bio-Rad) and analysed using the ImageJ ColonyArea plugin as described previously (Guzmán et al, [2014]).

[1] = tested on: CEP55, MKRN2, EDF1, CHMP2B, DTX3L; experiment: Immunoblotting of commonly depleted USP9X substrates; type: cell-based, human; details: MiaPaca2 and SK-MEL-2, 24 h; rescued with proteasomal inhibition (MG132)
Procedure: The next day, cells were lysed in DISC lysis buffer (20 mM TRIS/HCl [pH 7.5], 150 mM NaCl, 2 mM EDTA [pH 8.0], 1% [v/v] Triton X 100, 10% [v/v] glycerol) supplemented with 2% (w/v) SDS and PhosSTOP tablets (Roche). To shred DNA, DISC lysates were run through polypropylene columns (Pierce). […] Next, membranes were washed twice in TBS-T and incubated with primary antibodies at 4 °C o/n. Primary antibodies were diluted in antibody dilution buffer (5% [w/v] BSA [pH 5.2, Sigma-Aldrich] in TBS-T with 0.04% [v/v] sodium azide) as per the manufacturer’s instructions. […] Next, membranes were washed four times for 5 min each in TBS-T. Membranes were developed in ECL (Bio-Rad) and imaged using the ChemiDoc imaging system (Bio-Rad). Images were processed using Image Lab software.

ACHN cells = experiment: IncuCyte live-cell imaging cell death, ACHN; type: cell-based, human; details: 10 µM
Procedure: Cells were seeded at varying densities (1000–8000 cells per well) after initial optimisation in a 96-well tissue culture-treated plate (Thermo Fisher Scientific). Cells were incubated o/n, and the next day, inhibitors and controls diluted in cell media were added to the cells to a final volume of 200 μL per well. Cell death was measured using PI (Sigma-Aldrich). Cells were imaged with four images per well every 2 h for up to 96 h using the IncuCyte live-cell analysis system (S3, Sartorius). Cell proliferation data were analysed using Microsoft Excel by normalising confluence to control conditions. For cell killing readouts, the number of PI-positive cells was normalised to the control conditions for each timepoint.

USP9X catalytic domain = target: T1, USP9X catalytic domain (Homo sapiens, UniProt Q93008); experiment: SPR binding assay; details: SPR, steady state, mean of three repeats; read-out: KD (steady state affinity)
T1 construct: His/SUMO (pOPIN-S vector) (N, cleaved yes); made in house; host or cells: E. coli BL21
T1 sequence (Q93008 1551-1970): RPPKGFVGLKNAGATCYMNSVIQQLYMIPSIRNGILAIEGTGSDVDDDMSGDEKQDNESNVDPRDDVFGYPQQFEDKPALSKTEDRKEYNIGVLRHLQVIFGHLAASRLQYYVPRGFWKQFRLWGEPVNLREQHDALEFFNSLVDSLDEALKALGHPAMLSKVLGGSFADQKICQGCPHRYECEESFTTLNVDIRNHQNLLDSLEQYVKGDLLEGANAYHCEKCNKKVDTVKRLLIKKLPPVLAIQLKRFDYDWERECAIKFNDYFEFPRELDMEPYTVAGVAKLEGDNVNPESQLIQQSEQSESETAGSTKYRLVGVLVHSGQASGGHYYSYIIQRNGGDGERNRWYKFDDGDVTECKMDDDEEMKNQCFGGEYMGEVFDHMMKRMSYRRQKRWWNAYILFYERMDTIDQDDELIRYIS
Procedure: Next, the sample was desalted using PD midiTrap™ G-25 (GE Healthcare) columns following the manufacturer’s instructions and was further purified by SEC, concentrated, and stored at -80 °C. Enzyme activity was tested in a ubiquitin-probe assay. SPR experiments were performed on a Biacore 8 K+ instrument (Cytiva). USP9X catalytic domain with a C-terminal AviTag™ was immobilised in 10 mM HEPES, 150 mM NaCl at pH 7.4 on a Series S Sensor Chip SA (Cytiva) by coupling. […] Running buffer was supplemented with 2% (v/v) DMSO. Multi-cycle kinetics were performed with 120 s associations and 600 s dissociations at 30 µL/min with no further regeneration. Binding constants were determined in Biacore Insight evaluation software (v5.0.18) at steady state, taking the median response over a 5-s window beginning at 10 s before the end of the association phase. Final KD values are the mean of three independent experiments.

HDFs = experiment: Colony formation assay, HDF; type: cell-based, human; details: 10 µM, 7–12 days
Procedure: as §1

USP9X/USP24 chimera = target: T2, USP9X/USP24 chimera (Homo sapiens, UniProt Q93008, A1766S/D1761E/K1759R/L1762V/Y1757F); experiment: Ub-Rho cleavage assay, USP9X/USP24 chimera; type: biochemical
T2 construct: His/SUMO (pOPIN-S vector) (N, cleaved yes); made in house; host or cells: E. coli BL21
Source text: An expression construct for the USP9X catalytic domain (aa 1551–1970, […]: Q93008-1), was codon optimised for bacterial expression, synthesised in gBlock format (Integrated DNA Technologies) and cloned into the pOPIN-S vector (Berrow et al, [2007]), which was digested with KpnI and HindIII using In-Fusion™ HD cloning (Takara Clontech). […] For the USP9X Δβ catalytic domain a deletion construct ΔE1924-K1943 and for USP9X/USP24 chimera, a construct with USP9X Y1757-A1766 replaced with the USP24 (NCBI Reference Sequence: NP_056121) aa motif […] was used. All constructs were confirmed by Sanger sequencing (AGRF).
The reaction was stopped through the addition of 10 mM citric acid. The assay was performed in 384-well format with a total reaction volume of 16 µL. Data was collected using the ClarioSTAR plate reader (BMG Labtech) at an emission of 535 nm. […] IC50 values presented in our study are the mean of three independent biological repeats unless indicated otherwise.

lymphoma line SR = experiment: NCI-60 cancer cell panel, SR; type: cell-based, human; details: 10 µM, 3 days
Procedure: Inhibitors were tested at 10 µM. Data shown is the mean of two technical replicates and is shown relative to the no-drug control, and relative to the time zero number of cells.

T2 sequence (Q93008 1551-1970 Y1757F/K1759R/D1761E/L1762V/A1766S): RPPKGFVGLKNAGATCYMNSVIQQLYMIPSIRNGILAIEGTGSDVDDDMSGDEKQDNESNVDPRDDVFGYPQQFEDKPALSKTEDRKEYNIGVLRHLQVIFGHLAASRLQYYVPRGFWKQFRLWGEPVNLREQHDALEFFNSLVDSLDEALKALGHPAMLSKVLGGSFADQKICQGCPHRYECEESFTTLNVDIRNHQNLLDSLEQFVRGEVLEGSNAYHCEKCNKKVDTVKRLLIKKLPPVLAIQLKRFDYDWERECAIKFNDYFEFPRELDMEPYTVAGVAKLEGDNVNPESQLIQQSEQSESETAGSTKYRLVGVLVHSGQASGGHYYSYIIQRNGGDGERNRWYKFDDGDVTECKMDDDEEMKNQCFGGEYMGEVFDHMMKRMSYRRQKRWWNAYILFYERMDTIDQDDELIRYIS

Cc1[nH]c2ccc(C(=O)N3CCN(S(=O)(=O)c4ccc5c(c4)OCCO5)CC3)cc2c1C [WEHI-092] was tested, and the “clonogenic potential, DLD-1” value (DLD-1 cells) was “strong decrease in proliferative capacity”, the “MKRN2, CHMP2B and DTX3L protein levels (Western Blot)” value [1] was “led to protein depletion” and the “response of ACHN cells (cell death)” value (ACHN cells) was “limited response”. For the same compound, the Kd (USP9X catalytic domain) was 1000 nM and 1050 nM, the “clonogenic potential, HDF” value (HDFs) was “limited or no effects” and the “activity of USP9X/USP24 chimera in presence of compound” value (USP9X/USP24 chimera) was “remained fully active at concentrations up to 10 µM; also recorded: no longer inhibited”. For the same compound, the “cell killing, SR” value (lymphoma line SR) was “cell death”.
